Test results from patent publication US5280033A, “Substituted 1-(alkoxy-iminoalkyl) imidazole derivatives and their use in treating disease related to an enhancement of thromboxane-A2 syntheis” (Farmitalia Carlo Erba S RL, priority 1990, dated 1994).
“Also recorded” adds a separate entry of the source.

How the values were obtained:
[1] = biological target: T1, TxA2 receptor (washed human platelets) (Homo sapiens, UniProt P21731); test: TxA2 antagonism, [^3H]-SQ 29,548 binding displacement in washed human platelets
T1 construct: endogenous in cells; host or cells: washed platelets of healthy human volunteers
T1 sequence (P21731 1-343): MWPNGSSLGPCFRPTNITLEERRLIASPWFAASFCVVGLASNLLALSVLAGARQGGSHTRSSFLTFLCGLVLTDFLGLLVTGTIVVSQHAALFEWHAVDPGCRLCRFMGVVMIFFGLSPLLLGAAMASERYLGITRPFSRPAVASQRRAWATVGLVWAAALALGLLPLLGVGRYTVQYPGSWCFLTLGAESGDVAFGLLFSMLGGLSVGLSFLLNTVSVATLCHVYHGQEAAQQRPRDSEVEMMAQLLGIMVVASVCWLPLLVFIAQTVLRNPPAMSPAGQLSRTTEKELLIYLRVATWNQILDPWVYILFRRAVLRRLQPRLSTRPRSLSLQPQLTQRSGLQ
Experimental: Moreover the compounds of the invention were tested for TxA2 antagonism in a binding assay in washed human platelets, using as radiolabelled ligand [^3 H]-SQ 29,548.
The experiments were carried out as follows: Blood from healthy volunteers of both sexes who had no taken any medication for at least 10 days is collected into one-tenth volume of acid citrate dextrose containing indomethacin (28 μM). Platelet rich plasma (PRP), obtained by centrifugation of the blood at 200×g for 20 min, is washed twice (1000×g for 10 min). The platelets are then resuspended in Tyrode-Hepes buffer (pH 7.4) to a final concentration of […] and incubated for 0-60 min at 25° with [^3 H]-SQ 29,548 (5 nM). For displacement experiments various concentrations (10^-9 -10^-4 M) of competing ligands were added and incubated for 30 min at 25° C.
After the incubation, 4 ml of ice-cold TRIS-HCL buffer (10 mM, pH 7.4) was added to each tube and the reaction mixture was immediately filtered by suction through a Whatman […] glass filter disc which was washed 2 times with ice-cold TRIS-HCl (4 ml) and counted for radioactivity by a Packard-β-counter.

TxA2 Synthase [2] = biological target: T2, TxA2 Synthase (Rattus norvegicus, UniProt P49430); test: TxA2 Synthase activity in vitro: TxB2 generated in whole blood during clotting (RRM rats); type: cell-based; settings: for inhibitory activity on TxA2 synthesis (in words): in vitro, RRM rat whole blood / glomeruli; for IC50: whole blood of RRM rats, clotting 1 h at 37° C., n = 8, limits for p = 0.95, read-out: In vitro effects on T × B2 production, IC50, Whole Blood
T2 construct: TxB2 generated in whole blood during clotting; from tissue; host or cells: rat whole blood, clotting (RRM rats)
T2 sequence (P49430 1-533): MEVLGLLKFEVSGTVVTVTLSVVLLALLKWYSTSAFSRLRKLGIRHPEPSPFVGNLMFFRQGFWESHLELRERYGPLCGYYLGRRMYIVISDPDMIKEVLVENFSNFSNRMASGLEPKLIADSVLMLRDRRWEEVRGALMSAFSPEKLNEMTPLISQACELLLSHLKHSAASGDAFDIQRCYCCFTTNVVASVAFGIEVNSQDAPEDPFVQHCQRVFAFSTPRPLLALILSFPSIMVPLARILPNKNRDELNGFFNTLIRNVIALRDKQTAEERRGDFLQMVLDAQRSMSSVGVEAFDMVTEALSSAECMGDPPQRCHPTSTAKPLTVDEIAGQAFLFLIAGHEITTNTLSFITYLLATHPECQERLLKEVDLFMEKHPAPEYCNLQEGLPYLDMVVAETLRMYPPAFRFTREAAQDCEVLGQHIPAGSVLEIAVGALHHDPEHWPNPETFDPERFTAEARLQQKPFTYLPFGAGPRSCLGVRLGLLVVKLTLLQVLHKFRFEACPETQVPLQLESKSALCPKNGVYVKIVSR
Experimental: (§1) The compounds of formula (I) were for example tested for their ability to inhibit TxA2 Synthase activity (as reflected by TxB2 generated in whole blood during clotting or in isolated glomeruli) in vitro in the rat.
(§2) The in vitro experiments were carried out as follows: The effect of the compounds on TxA2 synthesis was evaluated in serum and in glomeruli isolated from kidney cortex of reduced renal mass rats (RRM). Ablation of >70% of renal mass in the rat results in hypertension, proteinuria and glomerular sclerosis of the remnant kidney. Rats with a remnant kidney have increased excretion of thromboxane in the urine when compared with normal rats (Purkerson et al., Proc. Natl. Acad. Sci. USA 82, 193, 1985).
Blood was withdrawn from the abdominal aorta of the animals under light ether anesthesia.
Samples were then allowed to clot for 1 h at 37° C., centrifuged at 3000 rpm for 10 min, serum collected and stored at -20° C. until assayed. TxB2 levels were determined by RIA according to previously described procedures [Patrono et al.-Thromb. Res. 17, 3/4, 317, 1980] using highly specific antibody.

TxA2 Synthase [3] = biological target: T2, TxA2 Synthase; test: TxA2 Synthase activity in vitro: TxB2 production in isolated glomeruli (RRM rats); type: cell-based; settings: isolated glomeruli of RRM rats, 1 h at 37° C., n = 6; limits for p = 0.95; read-out: In vitro effects on T × B2 production, IC50, Glomeruli
Experimental: as §1, §2
The isolated glomeruli of 4 rats were pooled, suspended in modified Krebs buffer (pH 7.3) and divided into portions of 1 ml each containing a concentration of the test compounds or of the reference compounds.

TxA2 Synthase [4] = biological target: T2, TxA2 Synthase; settings: no test data given; cited from earlier work

Compound | IC50 ([1]; [^3H]-SQ 29,548 5 nM, 30 min at 25° C.) | IC50 (TxA2 Synthase [2]) | IC50 (TxA2 Synthase [3]) | affinity for the receptor (in words) ([1]; [^3H]-SQ 29,548 binding) | inhibitory activity on TxA2 synthesis (in words) (TxA2 Synthase [2]) | TxA2 synthase inhibitory activity of known compound (in words) (TxA2 Synthase [4])
O=C(O)CCCCO/N=C(\Cn1ccnc1)C1CCCCC1 [FCE 26398, (Z)-5-[1-cyclohexyl-2-(imidazol-1-yl)-ethylidene]aminoxypentanoic acid] |  | 19 nM | 36 nM |  | marked inhibitory activity on TxA2 synthesis significantly more potent than that of reference compounds Dazoxiben and ASA | 
O=C(O)COc1ccc(CCNS(=O)(=O)c2ccccc2)cc1 [BM 13177, Sulotroban] |  |  |  |  |  | devoid of TxA2 synthase inhibitory activity
CC(=O)Oc1ccccc1C(=O)O [ASA, Acetylsalicylic acid, reference compound] |  | 42000 nM |  |  |  | 

Now from value to molecule, other results behind:

IC50 ([1]; [^3H]-SQ 29,548 5 nM, 30 min at 25° C.) | IC50 (TxA2 Synthase [2]) | IC50 (TxA2 Synthase [3]) | Compound | affinity for the receptor (in words) ([1]; [^3H]-SQ 29,548 binding) | inhibitory activity on TxA2 synthesis (in words) (TxA2 Synthase [2]) | TxA2 synthase inhibitory activity of known compound (in words) (TxA2 Synthase [4])
190 nM | 48.3 nM |  | O=C(O)CCCCO/N=C(\c1ccccc1)C(Cc1ccccc1)n1ccnc1 (racemic) [FCE 27109, (±) (E)-5-[1-phenyl-2-(imidazol-1-yl)-2-benzylethylidene]aminoxypentanoic acid] | good affinity for the receptor better than that showed by the known compound Sulotroban (BM 13177) | marked inhibitory activity on TxA2 synthesis significantly more potent than that of reference compounds Dazoxiben and ASA; also recorded: active as TxA2 synthase inhibitor | 
 | 23 nM |  | O=C(O)CCCCO/N=C(/c1ccccc1)C(Cc1ccccc1)n1ccnc1 (racemic) [FCE 27108, (±) (Z)-5-[1-phenyl-2-(imidazol-1-yl)-2-benzylethylidene]aminoxypentanoic acid] |  | marked inhibitory activity on TxA2 synthesis significantly more potent than that of reference compounds Dazoxiben and ASA | 
